Assay [1] deals with Mycobacterium tuberculosis. The assay can be described thus: Antimycobacterial activity against Mycobacterium tuberculosis HN878 assessed as inhibition of mycobacterial growth incubated for 5 days. The format is functional, organism-based. The settings on record: HN878, 120 h.
In assay [2] the target is T1, Undecaprenyl-diphosphatase (Escherichia coli (strain K12), UniProt P60932).
T1 sequence (P60932 whole entry): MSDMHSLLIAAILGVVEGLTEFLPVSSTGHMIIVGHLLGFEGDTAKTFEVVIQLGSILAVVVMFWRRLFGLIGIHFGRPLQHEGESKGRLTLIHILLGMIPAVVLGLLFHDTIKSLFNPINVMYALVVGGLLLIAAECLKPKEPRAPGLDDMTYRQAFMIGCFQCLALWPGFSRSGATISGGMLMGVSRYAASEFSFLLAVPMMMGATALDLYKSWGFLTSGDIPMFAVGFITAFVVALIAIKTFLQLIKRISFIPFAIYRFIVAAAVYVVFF
Description: Inhibition of UppP in Escherichia coli using FPP as substrate pretreated for 20 mins followed by FPP addition and measured after 60 mins by malachite green based assay.

Assay [3] deals with Mycolicibacterium smegmatis. The assay can be described thus: Antimycobacterial activity against Mycobacterium smegmatis assessed as inhibition of mycobacterial growth incubated for 48 hrs in presence of 50 uM undecaprenyl phosphate. The format is functional, organism-based.
Assay [4] relates to Mycolicibacterium smegmatis. The assay can be described thus: Rescue fold, ratio of IC50 for antimycobacterial activity against Mycobacterium smegmatis in presence of 50 uM undecaprenyl phosphate to IC50 for antimycobacterial activity against Mycobacterium smegmatis. The format is functional.
Another assay has as its system Cell membrane. Description: Uncoupling activity in Escherichia coli inverted membrane vesicles assessed as collapse of pH gradient by measuring increase in ACMA fluorescence intensity by fluorometric analysis. The format is subcellular.
Assay [5] deals with Mycolicibacterium smegmatis. The assay can be described thus: Antimycobacterial activity against Mycobacterium smegmatis assessed as inhibition of mycobacterial growth incubated for 48 hrs. It counts as functional, organism-based.
Assay [6] relates to Mycobacterium tuberculosis. The assay can be described thus: Antimycobacterial activity against Mycobacterium tuberculosis HN878 assessed as inhibition of mycobacterial growth incubated for 5 days in presence of 50 uM undecaprenyl phosphate. The format is functional, organism-based. The settings on record: HN878, 120 h.
In assay [7] the test system is Mycolicibacterium smegmatis. The assay can be described thus: Antimycobacterial activity against Mycobacterium smegmatis assessed as inhibition of mycobacterial growth incubated for 48 hrs in presence of 50 uM menaquinone-4. It counts as functional, organism-based.
Assay [8] concerns Mycolicibacterium smegmatis. The assay can be described thus: Rescue fold, ratio of IC50 for antimycobacterial activity against Mycobacterium smegmatis in presence of 100 uM menaquinone-7 to IC50 for antimycobacterial activity against Mycobacterium smegmatis. It counts as functional.
In assay [9] the test system is Mycolicibacterium smegmatis. The assay can be described thus: Rescue fold, ratio of IC50 for antimycobacterial activity against Mycobacterium smegmatis in presence of 100 uM menaquinone-4 to IC50 for antimycobacterial activity against Mycobacterium smegmatis. It counts as functional.
The subject of assay [10] is Mycolicibacterium smegmatis. The assay can be described thus: Antimycobacterial activity against Mycobacterium smegmatis assessed as inhibition of mycobacterial growth incubated for 48 hrs in presence of 50 uM Upp. It counts as functional, organism-based.

Broadly, the IC50 is the concentration that gives 50% inhibition. In the case of `CC(C)=CCC/C(C)=C/CCNCCNC1C2CC3CC1CC(F)(C3)C2` (stereo not drawn), the half-inhibitory concentration (IC50) in assay [1] stood at 1.5 µM; in [2], 153 µM; in assay [3], 38 µM; in the assay with Cell membrane, 5.5 µM; in assay [5], 8 µM; in assay [6] it was 8.8 µM. Besides, the “Ratio IC50” value in assay [4] is listed as 4.8.
Consider `CC(C)=CCC/C(C)=C/COCCNC1C2CC3CC(C2)CC1C3` (stereo not drawn), for which the half-inhibitory concentration (IC50) amounted to 1.3 µM in [1]; 91 µM in assay [2]; 9.8 µM in assay [3]; 55 µM with Cell membrane; 7.3 µM in [5]; 2.8 µM in assay [6]. Moreover, the “Ratio IC50” value in [4] was 1.3.
For the compound `NCCNC1C2CC3CC(C2)CC1C3` (stereo not drawn), the half-maximal inhibitory concentration (IC50) in assay [1] was > 25 µM; in the assay on Cell membrane, 130 µM; in [5] it was > 500 µM.
Take `CCCCc1ccc(-c2nc(C)c(/C(C)=N/NC(=N)N)s2)cc1`: the IC50 in [7] worked out at 9.8 µM; in assay [3] it was 89 µM; in assay [5], 11 µM. Further, in assay [4], the “Ratio IC50” value came to 7.8.
In the case of `CC(C)=CCCC1(C)CC=NO1` (stereo not drawn), the IC50 in assay [1] was > 25 µM; with Cell membrane it was > 1000 µM; in assay [5], > 500 µM.
As to `ON=C1C2CC3CC(C2)CC1C3`, the 50% inhibitory concentration (IC50) was > 25 µM in assay [1], > 1000 µM with Cell membrane and > 500 µM in assay [5].
As for `CC(C)=CCC/C(C)=C/CCNCCNC1C2CC3CC(C2)CC1C3` (stereo not drawn), the half-inhibitory concentration (IC50) stood at 0.82 µM in assay [1]; 16 µM in assay [2]; 48 µM in assay [3]; 1.9 µM with Cell membrane; 2.7 µM in assay [5]; 8 µM in [6]. The “Ratio IC50” value is recorded as 2 in assay [8], 2 in assay [9] and 18 in [4].
In the case of `CC(C)=CCC/C(C)=C/CNCCNC1C2CC3CC1CC(C2)C3O` (stereo not drawn), the IC50 was > 25 µM in [1], 67 µM in assay [3], 19 µM in the assay on Cell membrane and 42 µM in assay [5]. The “Ratio IC50” value in [4] stood at 1.6.
For the compound `C/C(=C\CC/C(C)=C/CNCCNC1C2CC3CC(C2)CC1C3)CO` (stereo not drawn), the IC50 was > 16 µM in assay [1], 24 µM in [3], 17 µM in the assay with Cell membrane and 20 µM in [5]. The “Ratio IC50” value in assay [4] is 1.2.
In the same order, the values of `CC(C)=CCC/C(C)=C/CNCCNC1[C@H]2C[C@@H]3C[C@H](C2)[C@@H](O)[C@H]1C3` (stereo partly drawn) are 4.2 µM, 24 µM, 12 µM, 11 µM and 2.2.
Regarding `CC(C)=CCC/C(C)=C/CNCCNC1C2CC3CC1CC(O)(C3)C2` (stereo not drawn), the IC50 is > 25 µM in assay [1], 57 µM in assay [3], 18 µM in the assay with Cell membrane and 42 µM in assay [5]. Moreover, the “Ratio IC50” value in assay [4] was determined as 1.4.
Consider `O=C1C2CC3CC(C2)CC1C3`, for which the IC50 was > 25 µM in assay [1], > 1000 µM in the assay with Cell membrane and > 500 µM in [5].
On to `CC(C)=CCC/C(C)=C/CNCCNC1C2CC3CC(C2)CC1(O)C3` (stereo not drawn), for which the IC50 in assay [1] was determined as 0.81 µM; in assay [3], 15 µM; with Cell membrane it was 9.1 µM; in [5], 5 µM. In addition, the “Ratio IC50” value in assay [4] came to 3.
For the compound `CC(C)=CCC/C(C)=C/CN`, the IC50 in assay [1] is > 25 µM; in the assay on Cell membrane it was 307 µM; in [5] it was > 500 µM.
On to `C/C(=C\CNCCNC1C2CC3CC(C2)CC1C3)CCC(=O)C(C)C` (stereo not drawn), for which the IC50 in [1] was determined as 14 µM; in assay [3], 63 µM; in the assay on Cell membrane, 15 µM; in [5], 26 µM. Moreover, the “Ratio IC50” value in assay [4] was 2.4.
For `CC(C)=CCC/C(C)=C/C=N\O`, the IC50 in [1] is > 25 µM; in the assay with Cell membrane it was > 1000 µM; in [5], > 500 µM.
`CC(C)=CCC/C(C)=C/CNCCOC1C2CC3CC(C2)CC1C3` (stereo not drawn): the IC50 in [1] amounted to 0.07 µM; in assay [2], 21 µM; in [3] it was 11 µM; with Cell membrane it was 1.2 µM; in assay [5] it was 1.3 µM; in assay [6], 0.54 µM. Further, the “Ratio IC50” value in assay [4] turned out to be 9.
For the compound `c1ccc(CCNC2CCCc3c2[nH]c2ccc(C4CCCCC4)cc32)cc1` (stereo not drawn), the figures for the half-maximal inhibitory concentration (IC50) in assay [3], in [10] and in [5] were 56 µM, 14 µM and 14 µM, respectively.
In the case of `NC1C2CC3CC(C2)CC1C3` (stereo not drawn), the results for the IC50 (in assay [1]; in the assay on Cell membrane; in assay [5]) were > 25 µM, > 1000 µM and > 500 µM, respectively.
`CC(C)CCCC(C)CCNCCNC1C2CC3CC(C2)CC1C3` (stereo not drawn): the IC50 in assay [1] was determined as 1.7 µM; in assay [2] it was 15 µM; in assay [3] it was 9.1 µM; with Cell membrane, 5.2 µM; in assay [5], 9.3 µM; in assay [6], 16 µM. The “Ratio IC50” value in assay [4] is 1.
`CCCCCCCCCCCNCCNC1C2CC3CC(C2)CC1C3` (stereo not drawn): the IC50 was determined as 1.9 µM in assay [1]; 18 µM in assay [2]; 8.9 µM in [3]; 0.87 µM with Cell membrane; 3.9 µM in assay [5]; 24 µM in [6]. Moreover, in [4], the “Ratio IC50” value came to 2.3.
With `CC(C)=CCC/C(C)=C/CNCCN`, the IC50 was > 25 µM in assay [1], 77 µM with Cell membrane and > 500 µM in assay [5].
In the case of `CC(C)=CCC/C(C)=C/C(=O)O`, the IC50 in assay [1] was > 25 µM; in the assay with Cell membrane, > 1000 µM; in [5], > 500 µM.
On the same counts, the results for `CC(C)=CCC/C(C)=C/C=O` [CITRAL] are > 25 µM, > 1000 µM and > 500 µM.
For the compound `CC(C)=CCC/C(C)=C/C(C)(C)NCCNC1C2CC3CC(C2)CC1C3` (stereo not drawn), the concentration for half-maximal inhibition (IC50) in assay [1] worked out at 0.61 µM; in [2], 37 µM; in [3] it was 43 µM; with Cell membrane, 1.1 µM; in [5], 1.9 µM; in [6], 8.7 µM. Also, the “Ratio IC50” value in [4] was found to be 23.
